# Tests used:
# PDE IV = assay: Inhibition of PDE IV activity; type: biochemical
# conscious guinea-pigs = assay: Effect on dyspnoea and migration of proinflammatory cells into the airway lumen after allergic reaction of conscious guinea-pigs; type: in vivo, guinea-pig; conditions: 30 μmol/kg p.o.
# Description: 2. Effect of dyspnoea and migration of proinflammatory (immunocompetent) cells from the blood vessels into the airway lumen after allergic reaction of conscious guinea-pigs
# Immunocompetent blood cells (leucocytes) appear in the airway lumens under the influence of allergic, inflammatory reactions. This pathological migration can support itself, i.e. lead to chronic changes, and plays an important part as a pathological mechanism of chronic airway obstruction (of asthma) but also of allergic rhinitis and/or conjunctivitis. The inhibition of the migration by pharmaceuticals is an important therapeutic principle and is a measure of antiallergic or antiinflammatory actions.
# The experimental animal methodology employed for the measurement of the acute effect of an allergic reaction on respiration and cell migration itself essentially follows the descriptions of P. A. Hutson et al. (Am. Rev. Respir. Dis., 137, 548, 1988) and J. P. Tarayre et al. (J. Parmacol. Meth., 23, 13, 1990) and also R. Beume et al. (Atemw. Lungenkrkh., 11, 324, 1985).
# A defined guinea-pig collective is sensitized intraperitoneally to ovalbumin (20 μg+20 mg of Al(OH)3). 14 days later, the animals are tested:
# 0 h provocation of the allergic reaction, thoracographic latency time measurement until occurrence of dyspnoea, non-occurrence=protective action.
# +24 h anaesthesia and bronchoalveolar lavage: Determination of the total cell number, counting of the differential cell picture in the lavage, determination of the protein content in the cell-free supernatant of the lavage.
# The controlled used in each case was 1 random sample of sensitized animals: Placebo treatment+sham provocation or placebo treatment+provocation.
# The compound of Example 1 (=compound 1), 30 μmol/kg p.o., acts on the parameters of this relation as follows: […]
# [1] = bronchoalveolar lavage +24 h after provocation
# [2] = cell-free supernatant of lavage +24 h after provocation
smiles,measurement,setting,value
"COc1cc(C(=O)Nc2c(Cl)cncc2Cl)ccc1OC(F)F [Compound 1, N-(3,5-Dichloropyrid-4-yl)-4-difluoromethoxy-3-methoxybenzamide]",-log IC50,PDE IV,8.64
same,Passage of cells and protein after provocation,conscious guinea-pigs; base values = placebo + sham provocation,inhibits these passages to base values
same,"Eosinophilic granulocytes, median",conscious guinea-pigs; [1],1.2 × 10^6 /10 ml
same,"Eosinophilic granulocytes, median: bracketed value (relative to placebo + sham provocation = 1)",conscious guinea-pigs; [1],1.5
same,"Eosinophilic granulocytes, min./max.",conscious guinea-pigs; [1],0.6-2.5 × 10^6 /10 ml
same,"Macrophages, median",conscious guinea-pigs; [1],1.2 × 10^6 /10 ml
same,"Macrophages, median: bracketed value (relative to placebo + sham provocation = 1)",conscious guinea-pigs; [1],0.8
same,"Macrophages, min./max.",conscious guinea-pigs; [1],0.9-2.3 × 10^6 /10 ml
same,"Neutrophilic granulocytes, median",conscious guinea-pigs; [1],0.0 × 10^6 /10 ml
same,"Neutrophilic granulocytes, median: bracketed value (relative to placebo + sham provocation = 1)",conscious guinea-pigs; [1],0
same,"Neutrophilic granulocytes, min./max.",conscious guinea-pigs; [1],0.0-0.08 × 10^6 /10 ml
same,"Total leucocytes, median",conscious guinea-pigs; [1],2.5 × 10^6 /10 ml
same,"Total leucocytes, median: bracketed value (relative to placebo + sham provocation = 1)",conscious guinea-pigs; [1],1.1
same,"Total leucocytes, min./max.",conscious guinea-pigs; [1],1.5-4.2 × 10^6 /10 ml
same,"Protein content, median",conscious guinea-pigs; [2],4.1 mg/10 ml
same,"Protein content, median: bracketed value (relative to placebo + sham provocation = 1)",conscious guinea-pigs; [2],1.1
same,"Protein content, min./max.",conscious guinea-pigs; [2],2.6-11.0 mg/10 ml
same,"N, of which protected","conscious guinea-pigs; ovalbumin provocation, N = 14, non-occurrence of dyspnoea = protective action",8 animals
"O=C(Nc1c(Cl)cncc1Cl)c1ccc(OC(F)F)c(OC(F)F)c1 [Compound 2, N-(3,5-Dichloropyrid-4-yl)-3,4-bis-difluoromethoxybenzamide]",-log IC50,PDE IV,8.42
"O=C(Nc1c(Cl)cncc1Cl)c1ccc(OC(F)F)c(OCC2CCC2)c1 [Compound 3, N-(3,5-Dichloropyrid-4-yl)-3-cyclobutylmethoxy-4-difluoromethoxybenzamide]",-log IC50,PDE IV,8.74
"O=C(Nc1c(Cl)cncc1Cl)c1ccc(OC(F)F)c(OC2CCCC2)c1 [Compound 4, N-(3,5-Dichloropyrid-4-yl)-3-cyclopentyloxy-4-difluoromethoxybenzamide]",-log IC50,PDE IV,9.18

# Source: patent US5712298A, “Fluoroalkoxy-substituted benzamides and their use as cyclic nucleotide phosphodiesterase inhibitors” (BYK Gulden Lomberg Chemische Fabrik GmbH, priority 1993, dated 1998)
